# Measurements from patent publication US20260226071A1, “2, 4-DIANILINOPYRIMIDINE-BASED AURORA-A KINASE SELECTIVE DEGRADATION INDUCING COMPOUNDS” (UPPTHERA, INC., priority 2023, published 2026).
# Assays:
# Aurora kinase A (AURKA) = molecular target: T1, Aurora kinase A (AURKA) (Homo sapiens, UniProt O14965); experiment: Luciferase assay for AURKA in HeLa LgBit (AURKA-HiBit KI) cell line; type: cell-based; conditions: HeLa LgBit (AURKA-HiBit KI) cells, measured after 12 hours
# T1 construct: endogenous in cells; host or cells: HeLa LgBit (AURKA-HiBit KI), CRISPR/Cas9 knock-in at the endogenous AURKA locus
# T1 sequence (O14965 1-403): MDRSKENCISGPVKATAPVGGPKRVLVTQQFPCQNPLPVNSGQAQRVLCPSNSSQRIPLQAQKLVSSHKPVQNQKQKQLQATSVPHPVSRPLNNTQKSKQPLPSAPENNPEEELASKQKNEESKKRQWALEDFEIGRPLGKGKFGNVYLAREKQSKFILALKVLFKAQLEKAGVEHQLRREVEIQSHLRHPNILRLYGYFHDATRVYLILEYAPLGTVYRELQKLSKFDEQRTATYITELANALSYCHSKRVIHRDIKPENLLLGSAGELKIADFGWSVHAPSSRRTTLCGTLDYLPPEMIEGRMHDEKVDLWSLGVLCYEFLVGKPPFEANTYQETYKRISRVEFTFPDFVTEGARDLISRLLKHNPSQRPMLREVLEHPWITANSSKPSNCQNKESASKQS
# In short: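 HeLa cells stably expressing LgBit, with HiBit knocked in at the C-terminus of endogenous AURKA; 3×10^4 cells seeded, 18 h, then Endurazine substrate 2 h. Compounds tested at 10 nM or 100 nM; luminescence read at 470-480 nm after 12 h as real-time read-out.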
# NCI-H446 cell line = experiment: Cell viability assay for NCI-H446 cell line; type: cell-based; conditions: Homo sapiens, NCI-H446, 120 h; H446 cells, 5 days culture, EZ-Cytox; read-out: IC50 value (Level)
# Excerpt: The NCI-H446 (hereafter H446) cell lines were provided from American Type Culture Collection (ATCC). For cell culture, RPMI medium 1640 (Gibco, Cat. No. 22400-089; Lot. No. 2522717), FBS (Gibco, Cat. No. 16000-044; Lot. No. 2716756P), Penicillin/Streptomycin (PS) (Gibco, Cat. No. 15140-122; Lot. No. 2585636), 75T cell culture flask (SPL, Cat. No. 70075), 96 well cell culture plate (SPL, Cat. No. 30096), PBS pH 7.4 (Gibco, Cat. No. 10010-023; Lot. No. 2561466), TrypLE™ Express (Gibco, Cat. No. 12605-010; Lot. No. 2492811), counting chamber (hematocytometer) (Hirschmann, Cat. No. 8100204) and 0.4% Trypan Blue solution (DYNEBIO, Cat. No. CBT3710; Lot. No. 20231017) were used. Cells were cultured in RPMI 1640 medium supplemented with 10% FBS and 1% PS and incubated at 37° C., 5% CO2 condition in CO2 incubator (ThermoScientific, Cat. No. 4111).
# For experiment, the present compounds were fully dissolved in DMSO (Sigma-Aldrich Cat. No. D2438, Lot. No. RNBL7287.
# In each well of 96-well cell culture plate, […] cells of H446 cell lines were seeded in 150 μl of total medium volume. After 24 hours of cell seeding, the present compounds were treated.
# The present compounds were each diluted 3-folds from the highest concentration of 1000 nM to the lowest concentration of 0.15 nM. The compound was added to each well to make the total volume of […] and the cells were cultured for 5 days in CO2 incubator (Thermo Fisher Science, Cat. No. 4111).
# Thereafter, 20 μl of EZ-Cytox (DOGEN, Cat. NO. EZ-3000, Lot. No. DLS2308) was added to each well and the cells were cultured for 4 hours at the same condition in CO2 incubator. After culture, the absorbance of the sample was measured by setting the wavelength of a plate reader (BMG Labtech, CLARIOstar Plus) to […]. The samples were shaked for 2 minutes in the plate reader before measurement.
luminescence value (Level) (Aurora kinase A (AURKA); 10 nM compound),luminescence value (Level) (Aurora kinase A (AURKA); 100 nM compound),Compound,IC50 (NCI-H446 cell line) [nM]
C (C is 0.5 to 0.7),A (A is <0.2),"O=C1CCC(c2ccc(N3CCC(CN4CCN(C(=O)Cc5ccc(Nc6ncc(F)c(Nc7ccc(C(=O)Nc8ccccc8Cl)cc7)n6)cc5)CC4)CC3)cc2)C(=O)N1 (stereo not drawn) [Compound 1, N-(2-chlorophenyl)-4-((2-((4-(2-(4-((1-(4-(2,6-dioxopiperidin-3-yl)phenyl)piperidin-4-yl)methyl)piperazin-1-yl)-2-oxoethyl)phenyl)amino)-5-fluoropyrimidin-4-yl)amino)benzamide]",100 to 150
C (C is 0.5 to 0.7),A (A is <0.2),"O=C1CCC(c2ccc(N3CCN(CC4CCN(C(=O)c5ccc(Nc6ncc(F)c(Nc7ccc(C(=O)Nc8ccccc8Cl)cc7)n6)cc5)CC4)CC3)cc2)C(=O)N1 (stereo not drawn) [Compound 3, N-(2-chlorophenyl)-4-((2-((4-(4-((4-(4-(2,6-dioxopiperidin-3-yl)phenyl)piperazin-1-yl)methyl)piperidine-1-carbonyl)phenyl)amino)-5-fluoropyrimidin-4-yl)amino)benzamide]",50 to 100
C (C is 0.5 to 0.7),A (A is <0.2),"CN(CC1CCN(c2ccc(C3CCC(=O)NC3=O)cc2)CC1)C1CCC(NC(=O)c2ccc(Nc3ncc(F)c(Nc4ccc(C(=O)Nc5ccccc5Cl)cc4)n3)cc2)CC1 (stereo not drawn) [Compound 4, N-(2-chlorophenyl)-4-((2-((4-((4-(((1-(4-(2,6-dioxopiperidin-3-yl)phenyl)piperidin-4-yl)methyl)(methyl)amino)cyclohexyl)carbamoyl)phenyl)amino)-5-fluoropyrimidin-4-yl)amino)benzamide]",100 to 150
B (B is 0.3 to 0.5),A (A is <0.2),"O=C1CCC(c2ccc(N3CCN(CC(=O)N4CCC(NC(=O)c5ccc(Nc6ncc(F)c(Nc7ccc(C(=O)Nc8ccccc8Cl)cc7)n6)cc5)CC4)CC3)cc2)C(=O)N1 (stereo not drawn) [Compound 5, N-(2-chlorophenyl)-4-((2-((4-((1-(2-(4-(4-(2,6-dioxopiperidin-3-yl)phenyl)piperazin-1-yl)acetyl)piperidin-4-yl)carbamoyl)phenyl)amino)-5-fluoropyrimidin-4-yl)amino)benzamide]",< 50
B (B is 0.3 to 0.5),A (A is <0.2),"CC(CN1CCN(c2ccc(C3CCC(=O)NC3=O)cc2)CC1)C1CCN(NC(=O)c2ccc(Nc3ncc(F)c(Nc4ccc(C(=O)Nc5ccccc5Cl)cc4)n3)cc2)CC1 (stereo not drawn) [Compound 6, N-(2-chlorophenyl)-4-((2-((4-((4-(1-(4-(4-(2,6-dioxopiperidin-3-yl)phenyl)piperazin-1-yl)propan-2-yl)piperidin-1-yl)carbamoyl)phenyl)amino)-5-fluoropyrimidin-4-yl)amino)benzamide]",< 50
A (A is <0.3),A (A is <0.2),"O=C1CCC(c2ccc(N3CCN(CCC4CCN(NC(=O)c5ccc(Nc6ncc(F)c(Nc7ccc(C(=O)Nc8ccccc8Cl)cc7)n6)cc5)CC4)CC3)cc2)C(=O)N1 (stereo not drawn) [Compound 7, N-(2-chlorophenyl)-4-((2-((4-((4-(2-(4-(4-(2,6-dioxopiperidin-3-yl)phenyl)piperazin-1-yl)ethyl)piperidin-1-yl)carbamoyl)phenyl)amino)-5-fluoropyrimidin-4-yl)amino)benzamide]",< 50
B (B is 0.3 to 0.5),A (A is <0.2),"O=C1CCC(c2ccc(N3CC(CN4CCC(NC(=O)c5ccc(Nc6ncc(F)c(Nc7ccc(C(=O)Nc8ccccc8Cl)cc7)n6)cc5)CC4)C3)cc2)C(=O)N1 (stereo not drawn) [Compound 8, N-(2-chlorophenyl)-4-((2-((4-((1-((1-(4-(2,6-dioxopiperidin-3-yl)phenyl)azetidin-3-yl)methyl)piperidin-4-yl)carbamoyl)phenyl)amino)-5-fluoropyrimidin-4-yl)amino)benzamide]",< 50
B (B is 0.3 to 0.5),A (A is <0.2),"O=C1CCC(c2ccc(N3CCC(CN4CCC(NC(=O)c5ccc(Nc6ncc(F)c(Nc7ccc(C(=O)Nc8ccccc8Cl)cc7)n6)cc5)CC4)C3)cc2)C(=O)N1 (stereo not drawn) [Compound 9, N-(2-chlorophenyl)-4-((2-((4-((1-((1-(4-(2,6-dioxopiperidin-3-yl)phenyl)pyrrolidin-3-yl)methyl)piperidin-4-yl)carbamoyl)phenyl)amino)-5-fluoropyrimidin-4-yl)amino)benzamide]",< 50
B (B is 0.3 to 0.5),A (A is <0.2),"O=C1CCC(c2ccc(N3CCC(CCC(=O)N4CCC(NC(=O)c5ccc(Nc6ncc(F)c(Nc7ccc(C(=O)Nc8ccccc8Cl)cc7)n6)cc5)CC4)CC3)cc2)C(=O)N1 (stereo not drawn) [Compound 12, N-(2-chlorophenyl)-4-((2-((4-((1-(3-(1-(4-(2,6-dioxopiperidin-3-yl)phenyl)piperidin-4-yl)propanoyl)piperidin-4-yl)carbamoyl)phenyl)amino)-5-fluoropyrimidin-4-yl)amino)benzamide]",< 50
C (C is 0.5 to 0.7),B (B is 0.2 to 0.4),"O=C1CCC(c2ccc(N3CCN(Cc4ccc(NC(=O)c5ccc(Nc6ncc(F)c(Nc7ccc(C(=O)Nc8ccccc8Cl)cc7)n6)cc5)cc4)CC3)cc2)C(=O)N1 (stereo not drawn) [Compound 13, N-(2-chlorophenyl)-4-((2-((4-((4-((4-(4-(2,6-dioxopiperidin-3-yl)phenyl)piperazin-1-yl)methyl)phenyl)carbamoyl)phenyl)amino)-5-fluoropyrimidin-4-yl)amino)benzamide]",> 200
B (B is 0.3 to 0.5),A (A is <0.2),"O=C1CCC(c2ccc(N3CCN(C[C@H]4CC[C@H](NC(=O)c5ccc(Nc6ncc(F)c(Nc7ccc(C(=O)Nc8ccccc8Cl)cc7)n6)cc5)CC4)CC3)cc2)C(=O)N1 (stereo partly drawn) [Compound 16, N-(2-chlorophenyl)-4-((2-((4-(((1r,4r)-4-((4-(4-(2,6-dioxopiperidin-3-yl)phenyl)piperazin-1-yl)methyl)cyclohexyl)carbamoyl)phenyl)amino)-5-fluoropyrimidin-4-yl)amino)benzamide]",50 to 100
A (A is <0.3),A (A is <0.2),"O=C1CCC(c2ccc(N3CCN(CC[C@H]4CC[C@H](NC(=O)c5ccc(Nc6ncc(F)c(Nc7ccc(C(=O)Nc8ccccc8Cl)cc7)n6)cc5)CC4)CC3)cc2)C(=O)N1 (stereo partly drawn) [Compound 17, N-(2-chlorophenyl)-4-((2-((4-(((1r,4r)-4-(2-(4-(4-(2,6-dioxopiperidin-3-yl)phenyl)piperazin-1-yl)ethyl)cyclohexyl)carbamoyl)phenyl)amino)-5-fluoropyrimidin-4-yl)amino)benzamide]",50 to 100
A (A is <0.3),A (A is <0.2),"O=C1CCC(c2ccc(N3CCN(CCN4CCC(NC(=O)c5ccc(Nc6ncc(F)c(Nc7ccc(C(=O)Nc8ccccc8Cl)cc7)n6)cc5)CC4)CC3)cc2)C(=O)N1 (stereo not drawn) [Compound 18, N-(2-chlorophenyl)-4-((2-((4-((1-(2-(4-(4-(2,6-dioxopiperidin-3-yl)phenyl)piperazin-1-yl)ethyl)piperidin-4-yl)carbamoyl)phenyl)amino)-5-fluoropyrimidin-4-yl)amino) benzamide]",< 50
